These are literature values, as cited in paper PMC6422283 (Future medicinal chemistry, 2015).

In this series the test system is TRPV1. Conditions: capsaicin-induced Ca2+ flux into HEK293 cells. (In general: Calcium flux is commonly read through the fluorescence of an indicator in the cells.)

`Oc1cc2c(cc1O)CN(C(=S)NCCc1ccc(Cl)cc1)CCC2` [Compound 2, capsazepine]: the IC50 (usually the point on the concentration scale where inhibition reaches its midpoint) is 100 nM.

As for `Cc1nc2cc(NC(=O)c3ccc(-c4ccc(F)cc4)nc3C)ccc2s1` [SB782443], the IC50 was 49 nM.
